“And” between values parts separate entries of the source, which are not always exact repeats. Equal entries are not always repeated.
Test system: spinal cord astrocytes
Test: MTT cytotoxicity assay on spinal cord astrocyte primary cell cultures
Format: cell-based, C57BL/6J mice
Details: for IC50: 0.12–11.73 µM
From the text: Similarly to the assessment of haemolytic toxicity, the evaluation of cytotoxicity towards mammalian cells is another pivotal step to afford in the early stage of drug development, before undertaking other costly and time-consuming in vivo experiments. […] The cytotoxicity of quaternary phosphonium salts (QPSs) depends mainly on their physicochemical characteristics, including the number of carbon atoms of alkyl chains, the presence of aromatic ring(s) on which the P^+ cationic charge can delocalize, the type of counter anions, the possible colloidal properties, and the probable capability to form nano aggregates. The specific types of cells exposed to QPSs can further influence their cytotoxicity. In this regard, the constituents of membranes of cancer cells are different from those of mammalian cells. This makes them more susceptible to the disruptive action of cationic compounds, thus making QPSs’ possible cytotoxicity towards tumour cells higher than towards normal ones. Anyway, a certain cytotoxicity could manifest also in normal cells and quantifying it is mandatory. Based on these considerations, although NB is a neuroendocrine tumour which derives from neural crest cells, we investigated the BPPB toxic effects on primary cell cultures, namely spinal cord astrocytes and cortical neurons. Astrocyte primary cultures have emerged as an important tool for understanding the responses of normal cells under both physiological and pathological conditions. On the other hand, primary neuronal cell cultures are best suited for drug discovery and drug development. Primary cell cultures freshly prepared from animals reproduce physiological conditions astonishingly like the in vivo situation. As for our knowledge, it is the first time that the cytotoxicity of a bola amphiphilic compound is assessed on primary cultures of astrocytes and neurons. More generically, the existent studies on the cytotoxicity of synthetic QPSs, or of a generic exogenous synthetic cationic organic compound or polymer on astrocytes and neurons primary cell cultures, are limited. As examples, upon a rapid survey, we have found a study on the mechanism by which amine-modified cationic polystyrene nanoparticles induced cell death in a human brain astrocytoma cell line, but not in primary astrocytes. A study on the mechanism by which endogenous eosinophil cationic protein/RNase 3 induced cell death in primary astrocytes was found, but exogenous synthetic cationic compounds were not considered. Concerning primary neurons, the cytotoxicity of both a commercial (LA2000) and a newly prepared cationic lipid (Arg (TFA^−)) vs. primary neurons was assessed by Aoshima et al.. The cytotoxicity of a library of 80 compounds, among which only 2/3 molecules were cationic salts, was evaluated in human-induced pluripotent stem cell (iPSC)-derived neural stem cells, neurons, and astrocytes by Pei et al.. Vidal et al. assessed the neurotoxicity of a cationic fourth generation (G4) amine dendrimer (G4-NH2) towards primary neuron cell cultures. […] Cell viability in neurons and astrocytes, treated with increasing concentrations of BPPB for 24, 48, and 72 h, was assessed using the MTT essay, which is a method endowed with simplicity, convenience, quantitative and high throughput, as well as reproducibility. MTT is a well-established method for assessing cell viability, and its reliability is supported by standardized protocols in many areas of research.
Astrocytes were prepared from the spinal cord of neonatal 2-day-old C57BL/6J mice as previously described, with minor modifications. Briefly, two days after birth, pups (P1-2) were euthanized by cervical dislocation by trained personnel, and spinal cords were rapidly removed. […]

c1ccc([P+](CCCCCCCCCCCC[P+](c2ccccc2)(c2ccccc2)c2ccccc2)(c2ccccc2)c2ccccc2)cc1 [BPPB, 1,1-(1,12-dodecanediyl)-bis-[1,1,1]-triphenyl phosphonium di-bromide]
cell viability (1.17 µM, 48 h): 72.17%
cell viability (1.17 µM, 72 h): 69.31%
cell viability (2.93 µM, 24 h): 74.95%
cell viability (8.80 µM, 24 h): 47.14%
cell viability (8.80 µM, 72 h): 42.70%
cell viability (11.73 µM, 24 h): 20.22%
cell viability (11.73 µM, 48 h): 45.18%
IC50 (24 h exposure): ~7.04 µM and 7.04 µM
IC50 (48 h exposure): 11 ± 5.09 µM
IC50 (72 h exposure): 5.09 ± 1.22 µM
SI values with respect to primary spinal cord astrocytes (HTLA 230 and HTLA ER, all exposure timings): 4.25–23.73
selectivity index values (NB cells with respect to neurons and astrocytes, maximum): up to 23.7
SI 24 h (Spinal cord astrocytes vs. HTLA 230, 24 h): 7.61
SI 48 h (Spinal cord astrocytes vs. HTLA 230, 48 h): 23.73
SI 72 h (Spinal cord astrocytes vs. HTLA 230, 72 h): 13.09
SI 24 h (Spinal cord astrocytes vs. HTLA ER, 24 h): 5.69
SI 48 h (Spinal cord astrocytes vs. HTLA ER, 48 h): 8.10
SI 72 h (Spinal cord astrocytes vs. HTLA ER, 72 h): 4.25

Reference: publication PMC12154426, “TPP-Based Nanovesicles Kill MDR Neuroblastoma Cells and Induce Moderate ROS Increase, While Exerting Low Toxicity Towards Primary Cell Cultures: An In Vitro Study” (International Journal of Molecular Sciences, 2025)
